{"source": "paper PMC5792431", "about": "(Scientific Reports, 2018)", "key": {"[1]": {"assay": "in vitro", "details": "human, microsomes, pH 7.4"}, "[2]": {"details": "human"}, "[3]": {"assay": "in vitro", "details": "human, Caco-2, pH 7.4"}, "[4]": {"assay": "in vitro", "details": "both, human, plasma, pH 7.4"}, "[5]": {"assay": "in vitro", "details": "human, hepatocytes"}, "[6]": {"assay": "physchem", "details": "pH 7.4"}, "[7]": {"test_system": "rRVFVΔNSs::Katushka", "assay": "microbe, parasite or virus in culture", "assay_type": "cell-based, Rift Valley fever virus", "details": "for EC50: read-out: EC50, inhibition of fluorescent cell foci"}, "[8]": {"details": "human, microsomes, pH 7.4"}, "[9]": {"assay": "physchem", "details": "37 °C, pH 7.4, aqueous buffer, thermodynamic from solid"}, "[10]": {"test_system": "rRVFVΔNSs::Katushka", "assay_type": "cell-based, Rift Valley fever virus"}, "[11]": {"test_system": "rRVFVΔNSs::Katushka", "assay": "microbe, parasite or virus in culture", "assay_type": "cell-based, Rift Valley fever virus"}, "[12]": {"assay": "in vitro", "details": "mouse, plasma, pH 7.4"}, "[13]": {"test_system": "A549 cells", "details": "cited from earlier work"}, "[14]": {"details": "mouse, microsomes, pH 7.4"}, "[15]": {"assay": "in vivo", "details": "female, BALB/C, mouse"}, "[16]": {"assay": "physchem", "details": "plasma or biological fluid"}, "[17]": {"test_system": "rRVFVΔNSs::Katushka", "assay": "microbe, parasite or virus in culture", "assay_type": "cell-based", "details": "Rift Valley fever virus, A549, 16 h, read-out: EC50, inhibition of RVFV RNA expression (qPCR)"}, "[18]": {"test_system": "RVFV virions", "assay_type": "cell-based, Rift Valley fever virus"}, "[19]": {"details": "mouse, in vivo"}, "[20]": {"assay": "in vitro", "details": "mouse, microsomes, pH 7.4"}, "[21]": {"details": "female, BALB/C, mouse, in vivo"}, "[22]": {"details": "Rift Valley fever virus, A549, 16 h"}}, "note": "Where two headings read alike, the source gives them in different places.", "data": [{"smiles": "O=C(Nc1ccccc1C(=O)Nc1ccccc1C(=O)O)c1ccccc1", "note": "[Benzavir-1, 2-{[2-(benzoylamino)benzoyl]amino}-benzoic acid]", "values": [{"measurement": "microsomal CLint", "setting": "[1]", "result": "3.9 ± 0.8", "unit": "µL/min/mg"}, {"measurement": "CLH, u (HHep)", "setting": "[2]", "result": 2.3, "unit": "L/h"}, {"measurement": "Papp A→B", "setting": "[3]", "result": "32 ± 3", "unit": "×10⁻⁶ cm/s"}, {"measurement": "Papp B→A", "setting": "[3]", "result": "31 ± 2", "unit": "×10⁻⁶ cm/s"}, {"measurement": "efflux ratio", "setting": "[3]", "result": 1}, {"measurement": "fraction unbound", "setting": "[4]", "result": 0.0003}, {"measurement": "hepatocyte CLint", "setting": "[5]", "result": "3.1 ± 0.1", "unit": "µL/min/1e6 cells"}, {"measurement": "logD", "setting": "[6]", "result": "1.52 ± 0.02"}, {"measurement": "EC50", "setting": "[7]; [22]", "result": 10.1, "unit": "µM"}, {"measurement": "CLH, u (HLM)", "setting": "[8]", "result": 1.0, "unit": "L/h"}, {"measurement": "solubility", "setting": "[9]", "result": "930 ± 110", "unit": "µM"}]}, {"smiles": "O=C(O)c1ccccc1NC(=O)c1ccccc1NC(=O)C1CCCCC1", "note": "[17e]", "values": [{"measurement": "EC50, inhibition of fluorescent cell foci", "setting": "[7]", "result": "out of range"}]}, {"smiles": "CC(C)(C)C(=O)Nc1ccccc1C(=O)Nc1ccccc1C(=O)O", "note": "[17d]", "values": [{"measurement": "EC50, inhibition of fluorescent cell foci", "setting": "[7]", "result": "out of range"}]}, {"smiles": "O=C(Nc1cc(Cl)ccc1C(=O)Nc1ccccc1C(=O)O)c1ccccc1F", "note": "[35f]", "values": [{"measurement": "EC50", "setting": "[7]; [22]", "result": 4.5, "unit": "µM"}, {"measurement": "EC50", "setting": "[7]", "result": 4.6, "unit": "µM"}]}, {"smiles": "O=C(Nc1cc(F)c(F)cc1C(=O)Nc1ccccc1C(=O)O)c1ccccc1F", "note": "[Benzavir-2, 2-(4,5-difluoro-2-(2-fluorobenzamido)benzamido)benzoic acid]", "values": [{"measurement": "microsomal CLint", "setting": "[1]", "result": "3.8 ± 0.4", "unit": "µL/min/mg"}, {"measurement": "inhibitory effect by time of addition", "setting": "[10]", "result": "the inhibitory effect on the formation of the fluorescent cell foci was the greatest"}, {"measurement": "CLH, u (HHep)", "setting": "[2]", "result": 4.0, "unit": "L/h"}, {"measurement": "Papp A→B", "setting": "[3]", "result": "55 ± 4", "unit": "×10⁻⁶ cm/s"}, {"measurement": "Papp B→A", "setting": "[3]", "result": "45 ± 3", "unit": "×10⁻⁶ cm/s"}, {"measurement": "efflux ratio", "setting": "[3]", "result": 0.8}, {"measurement": "fraction unbound", "setting": "[4]", "result": "0.0004 ± 0.0002"}, {"measurement": "inhibition of release of viable progeny particles to the supernatant", "setting": "[11]; 1.25 μM", "result": "> 95", "unit": "%"}, {"measurement": "EC50", "setting": "[11]; Rift Valley fever virus, A549, 16 h, read-out: EC50, inhibition of production of progeny infectious virus", "result": 0.6, "unit": "µM"}, {"measurement": "fraction unbound", "setting": "[12]", "result": "0.0076 ± 0.0002"}, {"measurement": "CC50", "setting": "[13]", "result": "not achieved within these concentrations"}, {"measurement": "hepatocyte CLint", "setting": "[5]", "result": "4.1 ± 0.4", "unit": "µL/min/1e6 cells"}, {"measurement": "CLH, u (MLM)", "setting": "[14]", "result": 0.15, "unit": "L/h"}, {"measurement": "logD", "setting": "[6]", "result": "1.56 ± 0.01"}, {"measurement": "Cmax", "setting": "[15]; ip, 2 mg/kg", "result": 2.3, "unit": "µM"}, {"measurement": "Tmax", "setting": "[15]; ip, 2 mg/kg", "result": 15, "unit": "min"}, {"measurement": "half-life", "setting": "[15]; ip, 2 mg/kg", "result": "84 ± 12", "unit": "min"}, {"measurement": "Cmax", "setting": "[15]; ip, 10 mg/kg", "result": 28, "unit": "µM"}, {"measurement": "Tmax", "setting": "[15]; ip, 10 mg/kg", "result": 15, "unit": "min"}, {"measurement": "half-life", "setting": "[15]; ip, 10 mg/kg", "result": "96 ± 12", "unit": "min"}, {"measurement": "Cmax", "setting": "[15]; iv, 1 mg/kg", "result": 7.8, "unit": "µM"}, {"measurement": "Vd", "setting": "[15]; iv, 1 mg/kg", "result": "29 ± 7", "unit": "L/kg"}, {"measurement": "clearance", "setting": "[15]; iv, 1 mg/kg", "result": 9.33, "unit": "mL/min"}, {"measurement": "half-life", "setting": "[15]; iv, 1 mg/kg", "result": "42 ± 12", "unit": "min"}, {"measurement": "Cmax", "setting": "[15]; iv, 2 mg/kg", "result": 7.8, "unit": "µM"}, {"measurement": "Vd", "setting": "[15]; iv, 2 mg/kg", "result": "20 ± 2", "unit": "L/kg"}, {"measurement": "clearance", "setting": "[15]; iv, 2 mg/kg", "result": 6.17, "unit": "mL/min"}, {"measurement": "half-life", "setting": "[15]; iv, 2 mg/kg", "result": "42 ± 6", "unit": "min"}, {"measurement": "Cmax", "setting": "[15]; iv, 4 mg/kg", "result": 20, "unit": "µM"}, {"measurement": "Vd", "setting": "[15]; iv, 4 mg/kg", "result": "35 ± 7", "unit": "L/kg"}, {"measurement": "clearance", "setting": "[15]; iv, 4 mg/kg", "result": 11.3, "unit": "mL/min"}, {"measurement": "half-life", "setting": "[15]; iv, 4 mg/kg", "result": "42 ± 6", "unit": "min"}, {"measurement": "Cmax", "setting": "[15]; po, 2 mg/kg", "result": 0.4, "unit": "µM"}, {"measurement": "Tmax", "setting": "[15]; po, 2 mg/kg", "result": 30, "unit": "min"}, {"measurement": "half-life", "setting": "[15]; po, 2 mg/kg", "result": "180 ± 36", "unit": "min"}, {"measurement": "Cmax", "setting": "[15]; po, 10 mg/kg", "result": 13, "unit": "µM"}, {"measurement": "Tmax", "setting": "[15]; po, 10 mg/kg", "result": 30, "unit": "min"}, {"measurement": "half-life", "setting": "[15]; po, 10 mg/kg", "result": "180 ± 60", "unit": "min"}, {"measurement": "solubility", "setting": "[16]", "result": "> 150", "unit": "µM"}, {"measurement": "EC50", "setting": "[17]", "result": 1.7, "unit": "µM"}, {"measurement": "EC50", "setting": "[7]; [22]", "result": 0.6, "unit": "µM"}, {"measurement": "inhibition of binding or uptake of RVFV virions", "setting": "[18]", "result": "No inhibition of binding or uptake of RVFV virions"}, {"measurement": "CLH, u (HLM)", "setting": "[8]", "result": 1.4, "unit": "L/h"}, {"measurement": "weight loss or negative behavioural signs", "setting": "[19]", "result": "No weight loss or negative behavioural signs were observed"}, {"measurement": "solubility", "setting": "[9]", "result": "130 ± 10", "unit": "µM"}, {"measurement": "microsomal CLint", "setting": "[20]", "result": "3.8 ± 0.9", "unit": "µL/min/mg"}, {"measurement": "Fapp", "setting": "[21]; ip, 2 mg/kg", "result": "43 ± 15", "unit": "%"}, {"measurement": "Fapp", "setting": "[21]; ip, 10 mg/kg", "result": "120 ± 40", "unit": "%"}, {"measurement": "iv CL relative to unbound in vitro metabolic CL", "setting": "[21]; iv", "result": "2–4 times higher"}, {"measurement": "Fapp", "setting": "[21]; po, 2 mg/kg", "result": "14 ± 5", "unit": "%"}, {"measurement": "Fapp", "setting": "[21]; po, 10 mg/kg", "result": "54 ± 18", "unit": "%"}]}]}
